According to ChEMBL document CHEMBL1201862, “PubChem BioAssay data set” (2004):
Calls of active or inactive are those of the source.

Tests used:
Prothrombin = Prothrombin (Homo sapiens, UniProt P00734); experiment: Thrombin 1536 HTS Dose Response Confirmation. [Related pubchem assays: 1046 (Thrombin 1536 HTS; hits were confirmed in this assay)]; format: functional
[1] = inhibitors of SNCA 5'UTR-driven reporter translation, confirmation, H4 neuroglioma cells, luminescence (AID 1988); format: functional, cell-based
BJ [2] = experiment: cells; format: functional, cell-based; details: Homo sapiens
[3] = cytotoxicity toward DRD oncogenic fibroblasts, dose response, cell-based, non-viral oncogenic, luminescence (AID 1934); format: functional; details: Homo sapiens
cells = format: functional, cell-based
J774.A1 = experiment: Confirmation of image-based Screening Assay for Inhibitors of Phagocytosis. [Related pubchem assays (depositor defined):AID1029, AID1643]; format: functional, cell-based; details: Mus musculus
BJ [4] = experiment: cytotoxicity toward BJ-TERT fibroblasts, dose response, cell-based, RAS-independent, luminescence (AID 1933); format: functional; details: Homo sapiens
[5] = Luminescence Cell-Based Dose Response HTS to Identify Inhibitors of 5'UTR Stem-Loop Driven Prion Protein mRNA Translation in H4 Neuroglioblastoma Cells. [Related pubchem assays: 1827 (Project Summary), 1813 (Primary HTS)]; format: functional
BJ [6] = experiment: cytotoxicity toward BJ-TERT-LT-ST fibroblasts, dose response, cell-based, RAS-independent, luminescence (AID 1935); format: functional; details: Homo sapiens;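 also: BJ fibroblasts immortalized with TERT plus LT and ST oncogenes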
[7] = luciferase reporter signal reduction – luminescence, H4-C neuroglioblastoma cells, dose response (AID 2458); format: functional, cell-based;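 also: H4 neuroglioblastoma cells stably carrying a luciferase reporter gene fusion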
[8] = inhibitors of firefly luciferase expression or activity, dose response, H4 neuroglioma cells, luminescence (AID 1990); format: functional, cell-based
[9] = inhibitors of SNCA 5'UTR-driven translation, confirmation, luminescence, H4 neuroglioblastoma cells, dose confirmation (AID 2454); format: functional, cell-based;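 also: H4 neuroglioblastoma cells carrying an alpha-synuclein 5'UTR luciferase reporter; potency for inhibition of the luciferase signal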
CAAX prenyl protease 2 = CAAX prenyl protease 2 (Saccharomyces cerevisiae S288c, UniProt Q03530); format: biochemical
Chain of CAAX prenyl protease 2 (Q03530 whole entry): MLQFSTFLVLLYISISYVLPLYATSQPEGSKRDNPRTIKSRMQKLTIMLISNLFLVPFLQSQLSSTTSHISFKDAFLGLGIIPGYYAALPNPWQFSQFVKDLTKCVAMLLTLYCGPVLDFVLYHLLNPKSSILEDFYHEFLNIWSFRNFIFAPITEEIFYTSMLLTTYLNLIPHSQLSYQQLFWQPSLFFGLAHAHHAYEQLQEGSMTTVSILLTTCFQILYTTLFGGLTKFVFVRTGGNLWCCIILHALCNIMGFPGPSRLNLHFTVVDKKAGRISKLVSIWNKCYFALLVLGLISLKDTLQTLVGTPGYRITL

Trypsin = Trypsin (Sus scrofa, UniProt P00761); experiment: porcine trypsin inhibitors, dose response, selectivity assay for Rce1 protease inhibitor project, biochemical, quenched peptide fluorescence, cherry-pick (AID 488789)
Chain of Trypsin (P00761 whole entry): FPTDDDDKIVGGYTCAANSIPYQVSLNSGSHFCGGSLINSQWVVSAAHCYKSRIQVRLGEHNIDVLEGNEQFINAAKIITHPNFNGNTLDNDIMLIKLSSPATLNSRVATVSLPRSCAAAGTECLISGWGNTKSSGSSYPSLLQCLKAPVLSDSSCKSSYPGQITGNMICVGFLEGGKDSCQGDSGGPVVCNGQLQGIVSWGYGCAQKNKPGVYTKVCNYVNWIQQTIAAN

[10] = molecular target: T1, Polyadenylate-binding protein 1 (Homo sapiens, UniProt P11940); experiment: PABP1 MLLE–PAM2 interaction inhibitors, dose response, miRNA deadenylation inhibitor project, biochemical, fluorescence polarization, Cy5-PAM2 peptide, secondary (AID 602260); format: functional; details: read-out: IC50_Mean
T1 sequence (P11940 whole entry): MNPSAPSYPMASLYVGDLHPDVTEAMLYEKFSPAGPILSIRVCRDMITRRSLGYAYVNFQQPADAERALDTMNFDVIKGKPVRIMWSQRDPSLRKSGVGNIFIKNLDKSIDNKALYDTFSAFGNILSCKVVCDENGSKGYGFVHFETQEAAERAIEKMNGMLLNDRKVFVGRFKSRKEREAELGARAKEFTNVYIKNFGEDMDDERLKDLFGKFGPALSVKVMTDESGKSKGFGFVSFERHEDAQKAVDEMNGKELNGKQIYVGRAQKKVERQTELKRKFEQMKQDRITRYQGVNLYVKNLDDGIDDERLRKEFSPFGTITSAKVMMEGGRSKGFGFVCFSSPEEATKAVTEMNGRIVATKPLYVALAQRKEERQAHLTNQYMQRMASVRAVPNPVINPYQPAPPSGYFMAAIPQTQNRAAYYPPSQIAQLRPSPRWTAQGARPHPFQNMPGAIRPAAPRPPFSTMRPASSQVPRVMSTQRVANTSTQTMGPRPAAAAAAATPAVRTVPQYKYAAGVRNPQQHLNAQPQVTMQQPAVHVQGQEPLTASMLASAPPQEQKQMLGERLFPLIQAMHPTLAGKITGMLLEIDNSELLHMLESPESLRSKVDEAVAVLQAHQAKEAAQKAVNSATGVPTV

[11] = THP-1 cell cytotoxicity, dose response, cytotoxicity control for Vif-APOBEC3G degradation inhibitor project, THP-1 cells (AID 1117359); format: functional; details: Human immunodeficiency virus 1, THP-1
[12] = molecular target: Female germline-specific tumor suppressor gld-1 (Caenorhabditis elegans, UniProt Q17339); experiment: inhibitors of GLD-1 binding to TGE RNA, dose response, biochemical, fluorescence polarization, C. elegans (AID 2802);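 also: fluorescence polarization of labeled TGE RNA bound by purified gld-1 protein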
Chain of Female germline-specific tumor suppressor gld-1 (Q17339 whole entry): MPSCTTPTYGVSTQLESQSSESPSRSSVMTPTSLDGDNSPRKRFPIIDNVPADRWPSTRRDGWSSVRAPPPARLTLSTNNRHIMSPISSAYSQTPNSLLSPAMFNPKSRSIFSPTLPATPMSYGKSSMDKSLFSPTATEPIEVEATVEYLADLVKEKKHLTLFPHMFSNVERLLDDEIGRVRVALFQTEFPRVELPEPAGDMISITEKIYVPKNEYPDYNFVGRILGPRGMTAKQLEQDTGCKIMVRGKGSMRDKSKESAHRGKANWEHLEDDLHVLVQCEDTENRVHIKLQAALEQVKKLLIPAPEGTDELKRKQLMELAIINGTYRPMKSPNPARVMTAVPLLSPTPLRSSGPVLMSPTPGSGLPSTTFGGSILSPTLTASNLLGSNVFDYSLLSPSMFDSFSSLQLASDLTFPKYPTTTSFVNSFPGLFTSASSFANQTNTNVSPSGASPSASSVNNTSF

[13] = molecular target: T1, Polyadenylate-binding protein 1; experiment: PABP1 MLLE–PAM2 binding inhibitor potency, dose response, biochemical, fluorescence polarization, FITC-PAM2 peptide (AID 602259); format: functional; details: read-out: IC50_Mean
Protein Tat = molecular target: T2, Protein Tat (Human immunodeficiency virus type 1 group M subtype B (isolate HXB2)(HIV-1), UniProt P04608); format: functional;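 also: tat binding to TAR RNA read out by fluorescence polarization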
T2 sequence (P04608 whole entry): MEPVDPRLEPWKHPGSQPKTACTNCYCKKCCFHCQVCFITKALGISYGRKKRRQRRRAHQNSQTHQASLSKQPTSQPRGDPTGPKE

Protein Rev = Protein Rev (Human immunodeficiency virus type 1 group M subtype B (isolate HXB2)(HIV-1), UniProt P04618); experiment: inhibitors of Rev binding to RRE RNA, dose response, biochemical, fluorescence polarization, HIV-1 (AID 434976); set-up: species or system Human immunodeficiency virus 1
Chain of Protein Rev (P04618 whole entry): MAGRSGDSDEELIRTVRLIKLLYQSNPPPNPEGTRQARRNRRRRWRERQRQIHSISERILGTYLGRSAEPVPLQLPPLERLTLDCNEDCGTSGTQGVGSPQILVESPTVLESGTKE

## O=C(c1ccco1)N1CCN(C(=O)N2c3ccccc3Sc3ccccc32)CC1
Prothrombin
  IC50: > 50 µM (not active)
[1]
  EC50: < 0.1 µM (active)
BJ [2]
  EC50: 13.2 µM (inconclusive)
[3]
  EC50: 6.59 µM (inconclusive)
cells
  EC50: 0.291 µM (active)
J774.A1
  IC50: < 0.05 µM (inactive)
BJ [4]
  EC50: 8.08 µM (inconclusive)
[5]
  EC50: 0.136 µM (active)
BJ [6]
  EC50: 1.41 µM (inconclusive)
[7]
  EC50: 0.295 µM (active)
[8]
  EC50: < 0.1 µM (active)
[9]
  EC50: 0.381 µM (active)

## N#Cc1nc(-c2ccco2)oc1N1CCN(C(c2ccccc2)c2ccccc2)CC1
CAAX prenyl protease 2
  AC50: 0.99 µM (active)
Trypsin
  AC50: 41.5 µM (active)

## Clc1ccc(/C=N/c2c(-c3ccco3)nc3ccccn23)cc1
[10]
  IC50: > 66 µM (inactive)
[11]
  CC50: > 40 µM (active)
[12]
  IC50: 2.59 µM (active)
[13]
  IC50: 59.2 µM (inactive)
Protein Tat
  IC50: 6.48 µM (inconclusive)
Protein Rev
  IC50: > 75.4 µM (not active)
